# Measured values published in patent publication EP0462621A2, “Use of particular compounds for manufacture of pharmaceutical formulations for treatment against various parasites, mycoplasmas, other indications and other infections” (Prendergast, Patrick Thomas, priority 1990, dated 1991).
# Legend:
# [1] = tested on: L donovani; experiment: Leishmania promastigote (PRO) in-vitro screen; assay type: cell-based; conditions: Ld.
# Excerpt: (§1) Following initial infection, the amastigote is the only form present in the mammalian host, surviving and dividing in various macrophage populations. Differences between the promastigote and amastigote in form and habitat are not matched by known biochemical dissimilarities. However, the drug susceptibility of the cultured promastigote, used in many early chemotherapy screens, contrasts markedly with that of the amastigote (see Table 1, below), most importantly to the clinically used pentavalent antimonials - sodium stibogluconate (Pentostam) and meglumine antimoniate (Glucantime).
# (§2) Amastigotes of Leishmania can be cultivated in a wide range of mammalian cells, some of which may be used in in-vitro screens. These include (1) a Sticker dog sarcoma (fibroblast) cell line, (2) transformed rodent macrophage cell lines, (3) primary isolated mouse peritoneal macrophages (MP mo), and (4) human monocyte-derived macrophages (HM mo). The methods are similar for all models. Amastigote or promastigote infected cells are maintained in a medium containing the drug for 4-7 days, at 37 C for L. donovani and 33-35 C for L. major and L. mexicana. Drug activity is then assessed by counting (I) the number of infected host cells and/or (II) the number of amastigotes/100 host cells.
# (§3) In-vitro and in-vivo models were used to test activities of a selection of many compounds. Those activities are summarized in Tables 1-3, showing variation between systems and species. Activities measured in the MP mo and HM mo models have shown the best correlation with results obtained in hamster and mouse models.
# [2] = tested on: L major/L mexicana; experiment: Leishmania promastigote (PRO) in-vitro screen; assay type: cell-based; conditions: Lm.
# Excerpt: as §1, §2, §3
# [3] = tested on: T. cruzi; experiment: T. cruzi intracellular amastigote (AM) in-vitro screen; assay type: cell-based
# Method: Dividing populations can be cultivated in muscle cells, fibroblasts and macrophages, following infection with trypomastigotes. After the initial infection, there is normally a period of 4-5 days during which the amastigotes divide before transforming, via the epimastigote stage, back to trypomastigotes which escape from the cell. Drug activity is measured during this 4-5 day period. A dividing host cell population, low infection rate, and the presence of trypomastigotes in the overlay can complicate the interpretation of results.
# Intracellular amastigote models can use a range of muscle (skeletal and cardiac) and fibroblast (e.g. HeLa, HePa) cell lines, macrophages, and chick embryo cells. […] To overcome the problems of overgrowth of the monolayer and a low percentage of infected cells, often associated with the use of cell lines, irradiated rat L6 myoblasts are used.
# [4] = tested on: T.b. brucei, T.b. gambiense and T.b. rhodesiense; experiment: Isolated bloodstream trypomastigote (TRY) in-vitro screen; assay type: cell-based
# Method: Primary screening for new trypanocides has made extensive use of rodent systems, in which host survival time is a simple indicator of drug activity. In-vitro screens have used a variety of trypomastigote types (see Table 3, below). […] Most early in-vitro screens employed a short test in which bloodstream trypomastigotes were isolated from an infected rodent and maintained for up to 24 h in a simple drug-containing media. Two significant modifications of this technique include maintaining isolated bloodstream trypomastigotes in drug-containing media for 3-4 hours at 37° C in micro-titre plates and their subsequent viability assessed by the uptake of radiolabelled precursors or motility and infectivity to mice.
# In-vitro studies on isolated bloodstream trypomastigotes were also used in the rational biochemical approaches towards the chemotherapy of T. brucei infections involving inhibitors of carbohydrate catabolism salicyl hydroxamic acid plus glycerol), of polyamine synthesis (methylgyoxal bis-guanylhydrazone and - DFMO), and of surface coat glycoprotein synthesis (Tunicamycin). In these studies, activity of the compounds are shown in-vitro and in-vivo, whereas the sensitivity of isolated bloodstream trypomastigotes to toxic oxygen radicals generated by naphthoquinones was not shown by the parasites in mice. The activity of the standard anti-trypanosomals-melarsoprol, pentamidine and suramin and tested compounds according to the present invention in in-vitro systems is shown in Table 3.
# as §3
# [5] = tested on: HIV-1; experiment: In vitro HIV-1 infection of H9 cells, HIV-1 P24 antigen capture test; assay type: cell-based; conditions: doses of 3.75 µM or higher, Figure 13
# Method: In vitro infection of H9 cells was carried out as described previously. Briefly, 5x10^6 H9 cells were treated with DEAE-dextran (25 µg/mt) for 20 min. Cells were then infected with 1 ml of cell free HIV-1 (1 X1 05 RT unit) for 1 hr at 37° C. Cells were then washed and incubated for 12 days in the absence or presence of various concentrations of IPA. Every 3-4 days, the medium was replaced with fresh medium containing appropriate concentrations of drug. At various days following infection, the presence of HIV-1 in the supernatant was monitored by measuring HIV-1 P24 using the antigen capture test (DuPont@, Wilmington, DE).
# An investigation of the effect of IPA on in-vitro HIV-1 infection of H9 cells, a T cell line, was performed. The drug was added following 1 hr adsorption of the virus, and was maintained in the culture medium throughout the incubation period.
# [6] = tested on: H9 cells; experiment: Cytotoxicity on uninfected H9 cells, 10 days continuous exposure; assay type: cell-based, human; conditions: read-out: ID50 - The concentration of IPA which kills 50% of the cells
# Method: The "Percent Dead Cells" are taken from Tables la(d) (iii) and la(d) (v) using the 10-day value, and the therapeutic index have been calculated for each drug concentration. The results of IPA are also graphed in Figures 16 and 17. Cytotoxicity (the dashed line) is calculated as the percent live cells.
# The availability of toxicity data collected in the same time frame as required for determination of antiviral effectiveness allowed determination of values for two different cell lines. Figures 16 and 17 illustrate the curves obtained by plotting the cytotoxicity of IPA (as a percent of the control cell viability) versus the percent of inhibition of HIV-1 replication (as a percent of the control titer) when H9 and 81-66-45 cells were tested. The cytotoxicity data obtained with 10 days continuous exposure, using uninfected cells, were used since 10 days was the length of time required to carry out the infectivity test. As is apparent from Tables la-(d) (ii) - la(d) (v), toxicity is much lower when the drug is added to cells for one day and then removed, or when cells are exposed for only 1 or 4 days. It is difficult to mimic in-vivo exposure times, particularly if metabolites are more toxic than the parent compound and are readily cleared in-vivo but not in-vitro.
# [7] = Case study: AIDS patient with hairy leukoplakia, IPA oral fluid dose or mouth wash; assay type: in vivo, human
# Excerpt: When the indication reappeared, following a period of time (several days), the administration of the compound gave further relief.
# [8] = tested on: Enterocytozoon bieneusi; experiment: Clinical evaluation of AIDS patients with chronic diarrhoea treated with IPA (stool examinations, endoscopic biopsies); assay type: in vivo; conditions: E. bieneusi identified prior to treatment
# Excerpt: Chronic diarrhoea accompanied by wasting is one of the most frequent problems associated with HIV infection. […] A new genera and species of microspora, Enterocytozoon bieneusi, was identified in ultrastructural studies of intestinal biopsies from AIDS patients with unexplained chronic diarrhoea prior to treatment with IPA.
# E. bieneusi microsporidiosis (intestinal microsporidiosis) is diagnosed with increasing frequency in AIDS patients with chronic diarrhoea of unknown origin. Forty-seven cases have been reported in the United States, Africa and Europe. […] Until now, diagnosis depended upon light and electron microscopy studies of small bowel biopsies, particularly of the jejunum. Diagnosis is suspected on histological findings either on Giemsa-stained smears and/or hematoxylin-eosin or Giemsa-stained paraffin sections: identification of oval parasites measuring 2-9 u.m and clusters of refractile spores (1-1.5 u.m) in villous enterocytes from just above the mouth of the crypts to the tips of the villi. These organisms are located in the supranuclear position of the cytoplasm. […] Recently reported recovery of spores from faeces, would simplify diagnosis. Unlike other species of microspora, E. bieneusi has not been identified from different organs such as brain and kidney. A proportion of transient diarrhoeas of unknown etiology in AIDS patients may be related to E. bieneusi. […]
structure (smiles),measurement,setting,value
"CC(C)=CCNc1ncnc2c1ncn2[C@@H]1O[C@H](CO)[C@@H](O)[C@H]1O [IPA, N^6-(Δ^2-isopentenyl) adenosine]","Activity, PRO",[1],+ +
same,"Activity, PRO",[2],+
same,"activity, intracellular AM",[3]; T. cruzi strain Sonya,"++(Y,Sonya)"
same,"activity, intracellular AM",[3]; T. cruzi strain Y,"++(Y,Sonya)"
same,"activity, isolated bloodstream TRY",[4],+
same,inhibition of HIV-1 production,[5],more than five log inhibition
same,CC50,[6],50 µM
same,relief of hairy leukoplakia,[7],complete relief
same,time to relief of the indication,[7],within seven days
same,pathogen found on clinical evaluation,[8],fails to identify any pathogen
